Experiments:
[1] = target: T1, glucocorticoid receptor (Homo sapiens, UniProt P04150); assay: Glucocorticoid Receptor Binding Assay ([3H]-dexamethasone, A549 cell extract); settings: [3H]-dexamethasone binding, read-out: GR Ki
T1 construct: containing 50-200 ug of A549 cell extract and 1.86 nM [^3H]-dexamethasone; host or cells: A549 human lung epithelial cells (sonicated cell extract)
T1 sequence (P04150 1-777): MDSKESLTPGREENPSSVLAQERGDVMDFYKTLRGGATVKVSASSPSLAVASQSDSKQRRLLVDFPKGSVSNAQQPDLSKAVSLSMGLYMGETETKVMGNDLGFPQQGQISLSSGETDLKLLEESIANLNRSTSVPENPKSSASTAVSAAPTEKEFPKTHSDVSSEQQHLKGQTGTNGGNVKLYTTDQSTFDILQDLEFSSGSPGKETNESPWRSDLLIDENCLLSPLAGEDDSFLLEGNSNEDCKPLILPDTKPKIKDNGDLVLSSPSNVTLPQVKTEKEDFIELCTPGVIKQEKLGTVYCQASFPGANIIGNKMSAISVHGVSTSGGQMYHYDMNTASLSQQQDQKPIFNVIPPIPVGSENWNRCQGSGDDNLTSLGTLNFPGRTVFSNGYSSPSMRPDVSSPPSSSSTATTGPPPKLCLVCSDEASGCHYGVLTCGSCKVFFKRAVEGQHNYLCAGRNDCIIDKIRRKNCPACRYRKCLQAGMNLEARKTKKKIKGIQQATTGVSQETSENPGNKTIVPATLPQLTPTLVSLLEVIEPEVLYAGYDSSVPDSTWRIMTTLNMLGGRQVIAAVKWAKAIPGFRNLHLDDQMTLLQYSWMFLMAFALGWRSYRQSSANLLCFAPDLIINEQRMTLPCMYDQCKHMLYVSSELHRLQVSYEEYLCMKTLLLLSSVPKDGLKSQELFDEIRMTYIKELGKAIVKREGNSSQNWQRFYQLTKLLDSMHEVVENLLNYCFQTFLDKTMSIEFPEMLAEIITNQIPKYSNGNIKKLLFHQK
Procedure, shortened: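 Displacement of [3H]-dexamethasone (1.86 nM) from glucocorticoid receptor in sonicated A549 lung epithelial cell extracts, 16 h at 4 °C, pH 7.2 molybdate-containing buffer. Bound radioactivity was scintillation-counted after charcoal/dextran stripping of free ligand.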

[2] = target: T2, human MR (Homo sapiens, UniProt P08235); assay: Mineralocorticoid Receptor Binding Assay ([3H]-aldosterone); settings: [3H]-aldosterone binding, human MR expressed in Sf9 cells; read-out: MR Ki
T2 construct: The full length human MR gene is cloned from a human kidney or human brain cDNA library; His tag from the pAcHLT vector (own knowledge); made in house; host or cells: Sf9 insect cells (baculovirus, pAcHLT transfer vector)
T2 sequence (P08235 1-984): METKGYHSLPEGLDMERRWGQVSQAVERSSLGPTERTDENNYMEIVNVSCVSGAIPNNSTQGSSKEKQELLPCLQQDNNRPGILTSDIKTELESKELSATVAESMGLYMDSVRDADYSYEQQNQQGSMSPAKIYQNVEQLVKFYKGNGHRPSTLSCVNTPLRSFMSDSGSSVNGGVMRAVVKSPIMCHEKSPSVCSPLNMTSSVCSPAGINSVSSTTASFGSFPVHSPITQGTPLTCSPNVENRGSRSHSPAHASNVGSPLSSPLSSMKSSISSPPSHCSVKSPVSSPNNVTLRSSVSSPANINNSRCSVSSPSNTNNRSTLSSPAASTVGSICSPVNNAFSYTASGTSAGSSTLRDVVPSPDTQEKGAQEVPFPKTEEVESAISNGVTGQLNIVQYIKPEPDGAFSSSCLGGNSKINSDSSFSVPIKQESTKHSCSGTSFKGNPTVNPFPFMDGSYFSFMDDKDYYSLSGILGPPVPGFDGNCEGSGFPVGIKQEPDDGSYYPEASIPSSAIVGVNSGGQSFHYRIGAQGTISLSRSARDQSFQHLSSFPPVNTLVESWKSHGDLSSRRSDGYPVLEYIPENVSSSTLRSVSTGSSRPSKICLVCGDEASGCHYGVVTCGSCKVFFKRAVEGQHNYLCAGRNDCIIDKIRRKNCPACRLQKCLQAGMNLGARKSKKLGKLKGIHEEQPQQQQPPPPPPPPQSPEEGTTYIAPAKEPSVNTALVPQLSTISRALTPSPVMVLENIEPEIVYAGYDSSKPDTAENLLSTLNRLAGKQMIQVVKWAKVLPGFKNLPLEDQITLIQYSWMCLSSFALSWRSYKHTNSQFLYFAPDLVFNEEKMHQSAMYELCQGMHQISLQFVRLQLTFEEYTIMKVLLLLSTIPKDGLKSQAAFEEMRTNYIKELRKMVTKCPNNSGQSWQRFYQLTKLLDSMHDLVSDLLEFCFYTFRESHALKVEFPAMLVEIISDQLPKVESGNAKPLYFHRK
Procedure, shortened: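 Receptor source: freeze-thaw lysate of baculovirus-infected Sf9 cells carrying full-length human MR, 20-25 μg protein. Incubation ~16 h at 4 °C with shaking, pH 7.5 buffer containing 30 mM sodium molybdate and 10% glycerol.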

| Compound | Ki [1] | Ki [2] |
| --- | --- | --- |
| NC(=O)c1ccc(C=C2c3ccccc3CCc3ccccc32)cc1 [Example 85, 4-(10,11-Dihydro-dibenzo[a,d]cyclohepten-5-ylidenemethyl)-benzamide] | < 500 nM | < 500 nM |
| CS(=O)(=O)Nc1cccc(C=C2c3ccccc3CCc3ccccc32)c1 [Example 90, N-[3-(10,11-Dihydro-dibenzo[a,d]cyclohepten-5-ylidenemethyl)-phenyl]-methanesulfonamide] | < 500 nM | < 500 nM |
| Cc1nc(S(=O)(=O)Nc2cccc(C=C3c4ccccc4CCc4ccccc43)c2)cn1C [Example 96, 1,2-Dimethyl-1H-imidazole-4sulfonic acid [3-(10,11-dihydro-dibenzo[a,d]cyclohepten-5-ylidenemethyl)-phenyl]-amide] | < 10000 nM | < 500 nM |
| CCCS(=O)(=O)Nc1cccc(C=C2c3ccccc3CCc3ccccc32)c1 [Example 104, Propane-1-sulfonic acid [3-(10,11-dihydro-dibenzo[a,d]cyclohepten-5-ylidenemethyl)-phenyl]-amide] | < 500 nM | < 500 nM |
| CCCCS(=O)(=O)Nc1cccc(C=C2c3ccccc3CCc3ccccc32)c1 [Example 105, Butane-1-sulfonic acid [3-(10,11-dihydro-dibenzo[a,d]cyclohepten-5-ylidenemethyl)-phenyl]-amide] | < 500 nM | < 500 nM |
| CCS(=O)(=O)Nc1ccc(C=C2c3ccccc3CCc3ccccc32)cc1 [Example 106, Ethanesulfonic acid [4-(10,11-dihydro-dibenzo[a,d]cyclohepten-5-ylidenemethyl)-phenyl]amide] | < 500 nM | < 500 nM |
| CCCS(=O)(=O)Nc1ccc(C=C2c3ccccc3CCc3ccccc32)cc1 [Example 108, Propane-1-sulfonic acid [4-(10,11-dihydro-dibenzo[a,d]cyclohepten-5-ylidenemethyl)-phenyl]-amide] | < 500 nM | < 500 nM |
| CCCCS(=O)(=O)Nc1ccc(C=C2c3ccccc3CCc3ccccc32)cc1 [Example 109, Butane-1-sulfonic acid [4-(10,11-dihydro-dibenzo[a,d]cyclohepten-5-ylidenemethyl)-phenyl]-amide] | < 500 nM | < 500 nM |
| CC(C)CS(=O)(=O)Nc1cccc(C=C2c3ccccc3CCc3ccccc32)c1 [Example 110, 2-Methyl-propane-1-sulfonic acid [3-(10,11-dihydro-dibenzo[a,d]cyclohepten-5-ylidenemethyl)-phenyl]-amide] | < 500 nM | < 500 nM |
| CN(C)S(=O)(=O)Nc1cccc(C=C2c3ccccc3CCc3ccccc32)c1 [Example 112, Dimethylsulfamic acid [3-(10,11-dihydro-dibenzo[a,d]cyclohepten-5-ylidenemethyl)-phenyl]-amide] | < 500 nM | < 500 nM |
| CN(C)S(=O)(=O)Nc1ccc(C=C2c3ccccc3CCc3ccccc32)cc1 [Example 113, Dimethylsulfamic acid [4-(10,11-dihydro-dibenzo[a,d]cyclohepten-5-ylidenemethyl)-phenyl]-amide] | < 500 nM | < 500 nM |
| CC(=O)Nc1cccc(C=C2c3ccccc3CCc3ccccc32)c1 [Example 114, N-[3-(10,11-Dihydro-dibenzo[a,d]cyclohepten-5-ylidenemethyl)-phenyl]-acetamide] | < 500 nM | < 500 nM |
| CNc1cccc(C=C2c3ccccc3CCc3ccccc32)c1 [Example 118, [3-(10,11-Dihydro-dibenzo[a,d]cyclohepten-5-ylidenemethyl)-phenyl]-methyl-amine] | < 500 nM | < 500 nM |
| CNc1ccccc1C=C1c2ccccc2CCc2ccccc21 [Example 120, [2-(10,11-Dihydro-dibenzo[a,d]cyclohepten-5-ylidenemethyl)-phenyl]-methyl-amine] | < 10000 nM | < 500 nM |
| CN(C)c1ccccc1C=C1c2ccccc2CCc2ccccc21 [Example 121, [2-(10,11-Dihydro-dibenzo[a,d]cyclohepten-5-ylidenemethyl)-phenyl]-dimethyl-amine] | < 10000 nM | < 500 nM |

Results, then the molecule that gave them:

| Ki [1] | Ki [2] | Compound |
| --- | --- | --- |
| < 500 nM | < 500 nM | CS(=O)(=O)Nc1cccc(CC2c3ccccc3CCc3ccccc32)c1 [Example 125, N-[3-(10,11-Dihydro-5H-dibenzo[a,d]cyclohepten-5-ylmethyl)-phenyl]-methanesulfonamide] |
| < 1000 nM | < 500 nM | NC(=O)Nc1cccc(C=C2c3ccccc3CCc3ccccc32)c1 [Example 128, [3-(10,11-Dihydro-dibenzo[a,d]cyclohepten-5-ylidenemethyl)-phenyl]-urea] |
| < 500 nM | < 500 nM | NC(=O)Nc1ccc(C=C2c3ccccc3CCc3ccccc32)cc1 [Example 129, [4-(10,11-Dihydro-dibenzo[a,d]cyclohepten-5-ylidenemethyl)-phenyl]-urea] |
| < 10000 nM | < 500 nM | Cc1ccccc1C=C1c2ccccc2CCc2ccccc21 [Example 130, 5-(2-Methyl-benzylidene)-10,11-dihydro-5H-dibenzo [a,d]cycloheptene] |
| < 10000 nM | < 500 nM | Cc1ccccc1CC1c2ccccc2CCc2ccccc21 [Example 131, 5-(2-Methyl-benzyl)-10,11-dihydro-5H-dibenzo[a,d]cycloheptene] |
| < 1000 nM | < 500 nM | Cc1cccc(C=C2c3ccccc3CCc3ccccc32)c1 [Example 132, 5-(3-Methyl-benzylidene)-10,11-dihydro-5H-dibenzo[a,d]cycloheptene] |
| < 1000 nM | < 500 nM | Cc1cccc(CC2c3ccccc3CCc3ccccc32)c1 [Example 133, 5-(3-Methyl-benzyl)-10,11-dihydro-5H-dibenzo[a,d]cycloheptene] |
| < 1000 nM | < 500 nM | FC(F)(F)c1cccc(CC2c3ccccc3CCc3ccccc32)c1 [Example 137, 5-(3-Trifluoromethyl-benzyl)-10,11-dihydro-5H-dibenzo[a,d]cycloheptene] |
| < 500 nM | < 500 nM | FC(F)(F)c1cc(CC2c3ccccc3CCc3ccccc32)cc(C(F)(F)F)c1 [Example 141, 5-(3,5-Bis-Trifluoromethyl-benzyl)-10,11-dihydro-5H-dibenzo[a,d]cycloheptene] |
| < 10000 nM | < 500 nM | Cn1cnc(S(=O)(=O)Nc2ccc(C=C3c4ccccc4CCc4ccccc43)cc2)c1 [Example 143, 1-Methyl-1H-imidazole-4-sulfonic acid [4-(10,11-dihydro-dibenzo[a,d]cyclohepten-5-ylidenemethyl)-phenyl]-amide] |
| < 500 nM | < 500 nM | CS(=O)(=O)NCc1cccc(C=C2c3ccccc3CCc3ccccc32)c1 [Example 145, N-[3-(10,11-Dihydro-dibenzo[a,d]cyclohepten-5-ylidenemethyl)-benzyl]-methanesulfonamide] |

From US20060063759A1, “Tricyclic steroid hormone nuclear receptor modulators” (priority 2002, published 2006)
